Reference: the METLIN SMRT retention time set (Domingo-Almenara et al. 2019)

Assay: gradient 5% acetonitrile 3 min, to 50% in 2 min, to 85% in 15 min, held 3 min, 100 µL/min
Conditions: column: Zorbax Extend-C18 2.1 x 50 mm; eluents: water / acetonitrile, 0.1% formic acid
How it was run: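 Each retention time is based on an adduct peak selected computationally and verified by manual inspection. Measurements used HPLC–quadrupole time-of-flight mass spectrometry in positive and negative ionization mode on mixtures of ~100 pure standards. Chromatography ran on a Zorbax Extend-C18 column (2.1 × 50 mm, 1.8 μm) at 100 μL/min with water and acetonitrile, each containing 0.1% formic acid, and dead and dwell volumes of 40 μL and 900 μL.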

SMILES | RP-LC retention time [s]
Cc1c(C(=O)NCC2CC2)cnn1-c1cc(-c2nc(C3CC3)no2)ccn1 | 909
Cc1ccccc1CNC(=O)C1(C)CCCN(C(=O)Nc2ccccc2C)C1 (stereo not given) | 959
COc1ccccc1-c1noc2ncnc(N3CCN(c4ccccn4)CC3)c12 | 646
Cc1ccc(C)c(C(O)Cn2ccn3nc(-c4cccs4)cc3c2=O)c1 (stereo not given) | 915
O=S(=O)(c1ccc(-c2nnc(C3CCCC3)o2)o1)N1CCCCCC1 | 1060
Oc1cc2c(cc1O)C(c1ccccc1)CNCC2 (stereo not given) | 585
Cc1noc([C@@H]2CC(F)(F)CN2S(=O)(=O)c2cccc(F)c2)n1 | 891
CCCn1c(=O)sc2cc(S(=O)(=O)N3CCC(C(=O)NC(C)(C)CC)CC3)ccc21 | 979
COc1cc(OC)c(NC(=O)Nc2c(-c3cccc(C)c3)nc3ccccn23)cc1Cl | 721
CCOc1cccc(CN2C[C@@H]3C(=O)N(CCN4CCc5ccccc5C4)C(=O)[C@@H]3C2)c1 | 622
CCn1ncc(Br)c1C(=O)Nc1ccccc1Cl | 1090
O=C(c1nnc(-c2ccc(S(=O)(=O)N3CCCCC3)cc2)o1)N1CCC2(CC1)OCCO2 | 884
CC1(C(=O)NC2CCCCCCC2)CN(S(C)(=O)=O)CC(=O)N1c1cccc(F)c1 (stereo not given) | 919
Cc1nc(SCC(=O)NCc2ccccc2Cl)cc(-c2ccccn2)n1 | 848
CC(C)CCC(=O)N1CCc2nc(N3CCN(C)CC3)sc2C1 | 609
CN1CCC(NC(=O)C2CCN(c3nc4ccc(-c5cccs5)nc4s3)CC2)CC1 | 654
CC(C)NC(=O)c1ccc(OCC2CCCN(C(=O)c3ccc(Cl)cc3)C2)cc1 (stereo not given) | 881
Cn1c(=O)c2cc(C(=O)NCc3cccc(C(F)(F)F)c3)nn2c2ccccc21 | 945
COc1ccc(S(=O)(=O)N2CCCC(C(=O)NCc3cccnc3)C2)cc1C (stereo not given) | 623
Cc1cccc(CN2C[C@@H]3C(=O)N(C)C(=O)[C@@H]3C2)c1 | 583
CCOc1ccccc1NC(=O)CSc1nnc(Cc2ccccc2)n1-n1cccc1 | 948
CC(C)C(=O)N1C[C@@H](F)C[C@H]1C(=O)N1CCc2ccccc2C1 | 683

SMILES | RP-LC retention time [s]
COCCN1C(=O)Cc2ccccc2C1C(=O)N1CCN(c2cccc(Cl)c2)CC1 (stereo not given) | 849
Cn1cc(CCNS(=O)(=O)c2cccc3nsnc23)c2cccnc21 | 671
COc1cccc(-c2nc(-c3ccc(S(=O)(=O)N4CCC(C)CC4)cc3)no2)c1 | 1360
O=C(Cn1c2ccccc2c2ncn(Cc3nc(C4CC4)no3)c(=O)c21)NCCC1=CCCCC1 | 940
Clc1ccccc1C1Cn2cnc(-c3nc(-c4cccnc4)no3)c2CO1 (stereo not given) | 825
COCCNc1c(-c2ccc(OC)cc2)nc2sc(C(=O)N(C)C)c(C)n12 | 698
COc1ccc(-c2nc(C)cc(C)c2CNC(=O)c2ccco2)cc1 | 585
O=C(c1ccc2c(c1)OCO2)N1CCN(c2ccc(=O)n(-c3ccc(Cl)cc3)n2)CC1 | 791
Cc1ccccc1C(=O)NCCN1CCN(c2ccc(Cl)cc2)CC1 | 610
Cc1cc(C)n2nc(SCC(=O)Nc3ccc(Br)cc3F)nc2n1 | 850
COc1ccc(CCC(=O)Nc2c(C(=O)N3CCN(c4ccccn4)CC3)oc3ccccc23)cc1 | 834
Cc1cc(C)nc(NS(=O)(=O)c2ccc(NC(=O)c3ccc(Cl)s3)cc2)n1 | 755
CCCN1C(=O)Cc2cc(C(=O)NCc3ccc(SC)cc3)ccc21 | 829
O=C1COc2ccc(S(=O)(=O)N3CCC(C(=O)Nc4ccc5c(c4)OCO5)CC3)cc2N1 | 715
CC1=NS(=O)(=O)N(C)C=C1C(=O)OCc1ccccc1Cl | 951
CCc1noc(C2CCCCN2C(=O)CCc2c[nH]c3ccccc23)n1 (stereo not given) | 888
Fc1ccc(Nc2nc(-c3ccccc3)cs2)cc1 | 1120
CCC(NC(=O)C1CCCN(c2cnc3nccnc3c2)C1)c1cccs1 (stereo not given) | 728
O=C(Nc1cccc([N+](=O)[O-])c1)C(=O)N1CCN(c2cccc(Cl)c2)CC1 | 950
Brc1ccc(-c2ccc(CNCc3ccc4c(c3)OCO4)o2)cc1 | 776
CC(C)CC(=O)N1CCN(c2ccc(=O)n(-c3ccc(Cl)cc3)n2)CC1 | 809
COCCOc1ccc2c(n1)CCN(C(=O)Nc1cc(C)ccc1C)C2 | 873

Next, values leading:

RP-LC retention time [s] | SMILES
907 | O=C1C2N=NN(c3ccccc3)C2C(=O)N1c1ccccc1 (stereo not given)
839 | CCOc1ccc(NC(=O)COc2cc(C)nc(N3CCN(c4ccccc4)CC3)n2)cc1
897 | O=C(Cn1cccc1-c1nnc(C2CCC2)o1)Nc1ccc(F)cc1
804 | O=C1CC(c2ccc(C(=O)O)cc2)c2scc(-c3ccccc3F)c2N1 (stereo not given)
642 | O=C(NCc1ccccn1)c1cc(-c2cccnc2)nc2ccc(Cl)cc12
615 | CCS(=O)(=O)N1CCCCC1c1nc(-c2cccnc2)n[nH]1 (stereo not given)
1420 | CCn1c(=O)c(N2CCCC(C(=O)N3CCN(c4cc(Cl)ccc4C)CC3)C2)nc2ccccc21 (stereo not given)
802 | CCOc1ccc(NC(=O)N2CCN(c3ccc(=O)n(-c4ccc(C)cc4)n3)CC2)cc1
1220 | Nc1ccccc1-n1nc2ccc3ccccc3c2n1
896 | Cc1sc(-c2nnc(C3CC3)o2)cc1NC(=O)c1cccc(N(C)C)c1
646 | COc1ccc(S(=O)(=O)CCc2noc(C(=O)NCCN3CCC(C)CC3)n2)cc1
781 | COc1ccc(CCNC(=O)NC(C)Cc2cccs2)cc1 (stereo not given)
853 | Cc1nc(N2CCOCC2)c2c(C(=O)N3CCCc4ccccc43)c(C)oc2n1
799 | Cc1ccn2c(NC(=O)COc3ccc(Cl)cc3Cl)c(-c3ccccc3)nc2c1
582 | O=C(Cc1cc(-c2ccc(Cl)cc2)on1)NCCCn1ccnc1
680 | COCCNC(=O)CCCn1c(=O)c2cccn2c2ccccc21
876 | CCn1nccc1C(=O)Nc1cc(-c2cc3ccccc3n2CC)[nH]n1
643 | CCN1CCN(C(=O)CN2C(=O)CCCc3cc(S(=O)(=O)N4CCC(C)CC4)ccc32)CC1
655 | O=C(Nc1ccccc1)N1CCCC(Cn2c(C3CC3)nc3cccnc32)C1 (stereo not given)
717 | O=C(COc1ccccc1)N1CC(n2cc(COCC3CC3)nn2)C1
760 | CCc1cc(=O)n(CC(=O)Nc2ccc(F)cc2C)c(N2CCOCC2)n1
632 | CNC(=O)c1nc(N2CCSCC2)c2cnn(C)c2n1
584 | CCCN(CCC)CCCNC(=O)C1CCCN(c2nnc(N3CCCC3=O)s2)C1 (stereo not given)

RP-LC retention time [s] | SMILES
708 | O=C(Cn1nc2c(N3CCCCCC3)nccn2c1=O)Nc1ccccc1Cl
1060 | COc1cccc(-c2cc3c(=O)n(CC(O)c4ccc(C(C)C)cc4)ccn3n2)c1 (stereo not given)
894 | Cc1cc2c(cc1CNC(=O)Cn1c(C)c(C#N)c3ccccc31)OCCCO2
1180 | CC1=NS(=O)(=O)N(Cc2ccccc2)C=C1C(=O)OCc1noc(-c2cccc(C)c2)n1
954 | Cc1ccc(-c2cc3c4nnc(SCC(=O)NCCc5ccccc5)n4ccn3n2)cc1C
740 | COc1ccccc1OCc1nn2c(-c3ccccn3)nnc2s1
665 | Cn1nnnc1C1CCCN(C(=O)C2CCCC2)C1 (stereo not given)
683 | COc1ccc(NC(=O)NC2CCN(c3ccccc3)C2=O)cc1OC (stereo not given)
693 | Cc1cc(C)n2nc(SCC(=O)NC3CCCCC3)nc2n1
968 | O=C(C1CCN(c2nc(-c3ccc(Cl)cc3)no2)CC1)N1CCN(c2ncccn2)CC1
618 | O=C(NC1CCN(c2cc(-c3cccs3)[nH]n2)C1)c1cccnc1 (stereo not given)
867 | COc1ccc(OC)c(S(=O)(=O)N2CCCC(C(=O)NC3CCCCC3)C2)c1 (stereo not given)
836 | Cc1cc2nn(CC(=O)Nc3ccc(F)c(Cl)c3)c(=O)n2c(N2CCCC2)n1
1000 | Cc1ccc(Cn2nc3c(S(=O)(=O)N4CCCCCC4)cccn3c2=O)cc1
1100 | CCOC(=O)c1c(C)oc2nc(C)nc(NCc3ccc4c(c3)OCO4)c12
888 | COc1ccc2c(c1)CC(NC(=O)Nc1ccc(Br)cc1)CO2 (stereo not given)
663 | O=C1NCCCn2cc(S(=O)(=O)Nc3cccc(F)c3)cc21
976 | CCOC(=O)c1[nH]c(C)c(CN(Cc2ccco2)C(=O)Nc2ccccc2F)c1C
629 | COc1ccc(CC(=O)NCc2c(C)nc3sc(C)nn23)cc1Cl
1070 | COc1ccc(-c2cc3c(=O)n(Cc4nc(-c5ccc(OC)cc5)oc4C)ccn3n2)cc1
893 | O=C(O)CCCC(=O)Nc1nc(-c2ccccc2)c(-c2ccccc2)s1
740 | CCN1c2ccccc2C(=O)NC12CCN(C(=O)NCc1cccc(F)c1)CC2
863 | CCC(=O)Nc1ccc(-n2cnc(C(=O)N3CCN(c4cc(C)ccc4C)CC3)c2)nc1
